Source: PubChem BioAssay (NCI)
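Assay format: 96-well plates, 48-hour exposure. Abbreviation: GI50, concentration required for 50% inhibition of growth. TGI: total growth inhibition.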

Legend:
Experiment in all cases: inhibition of tumour cell growth, NCI panel, 48 h
OVCAR-8 ovarian = system: OVCAR-8 ovarian
OVCAR-5 ovarian = system: OVCAR-5 ovarian
SF-295 CNS = system: SF-295 CNS
HS 578T breast = system: HS 578T breast
UO-31 renal = system: UO-31 renal
MCF7 breast = system: MCF7 breast
NCI/ADR-RES ovarian = system: NCI/ADR-RES ovarian
ACHN renal = system: ACHN renal
TK-10 renal = system: TK-10 renal
SNB-19 CNS = system: SNB-19 CNS
HCT-116 colon = system: HCT-116 colon
NCI-H522 lung = system: NCI-H522 lung
MDA-MB-231 breast = system: MDA-MB-231 breast
BT-549 breast = system: BT-549 breast
SF-539 CNS = system: SF-539 CNS
SK-MEL-5 melanoma = system: SK-MEL-5 melanoma
SNB-75 CNS = system: SNB-75 CNS
SK-OV-3 ovarian = system: SK-OV-3 ovarian
U251 CNS = system: U251 CNS
RXF 393 renal = system: RXF 393 renal
SK-MEL-2 melanoma = system: SK-MEL-2 melanoma
A498 renal = system: A498 renal
OVCAR-4 ovarian = system: OVCAR-4 ovarian
T-47D breast = system: T-47D breast
MALME-3M melanoma = system: MALME-3M melanoma
A549 NSCLC = system: A549 NSCLC
HOP-62 NSCLC = system: HOP-62 NSCLC
NCI-H460 lung = system: NCI-H460 lung
NCI-H23 lung = system: NCI-H23 lung
IGROV1 ovarian = system: IGROV1 ovarian
786-0 renal = system: 786-0 renal
SF-268 CNS = system: SF-268 CNS
SN12C renal = system: SN12C renal
LOX IMVI melanoma = system: LOX IMVI melanoma
NCI-H226 lung = system: NCI-H226 lung
HCC-2998 colon = system: HCC-2998 colon
UACC-62 melanoma = system: UACC-62 melanoma

`Cc1ccc(S(=O)(=O)NCCNc2nccc(-c3c(-c4ccc(F)cc4)nc4sccn34)n2)cc1` showed a GI50 (OVCAR-8 ovarian) of 5 µM, a TGI (OVCAR-8 ovarian) of 53.8 µM and a GI50 (OVCAR-5 ovarian) greater than 100 µM. It also gave a TGI (OVCAR-5 ovarian) greater than 100 µM, a GI50 (SF-295 CNS) of 12.6 µM and a TGI (SF-295 CNS) of 77.1 µM. The GI50 (HS 578T breast) was 7.7 µM, the TGI (HS 578T breast) was 75.5 µM and the GI50 (UO-31 renal) was 2380 nM. For the same compound, the TGI (UO-31 renal) was greater than 100 µM, the GI50 (MCF7 breast) was 1480 nM and the TGI (MCF7 breast) was greater than 100 µM. The GI50 (NCI/ADR-RES ovarian) was 4.83 µM, the TGI (NCI/ADR-RES ovarian) was greater than 100 µM and the GI50 (ACHN renal) was 2300 nM. The TGI (ACHN renal) was greater than 100 µM, the GI50 (TK-10 renal) was 7.8 µM and the TGI (TK-10 renal) was 42.6 µM. For the same compound, the GI50 (SNB-19 CNS) was 9.41 µM, the TGI (SNB-19 CNS) was 48.4 µM and the GI50 (HCT-116 colon) was 3.88 µM. The TGI (HCT-116 colon) was greater than 100 µM, the GI50 (NCI-H522 lung) was 6.95 µM and the TGI (NCI-H522 lung) was greater than 100 µM. It also gave a GI50 (MDA-MB-231 breast) of 11 µM, a TGI (MDA-MB-231 breast) greater than 100 µM and a GI50 (BT-549 breast) of 5.83 µM. It also gave a TGI (BT-549 breast) of 36 µM, a GI50 (SF-539 CNS) of 12.3 µM and a TGI (SF-539 CNS) of 31 µM. It also gave a GI50 (SK-MEL-5 melanoma) of 3.52 µM, a TGI (SK-MEL-5 melanoma) greater than 100 µM and a GI50 (SNB-75 CNS) of 2650 nM. For the same compound, the TGI (SNB-75 CNS) was 15 µM, the GI50 (SK-OV-3 ovarian) was 12.4 µM and the TGI (SK-OV-3 ovarian) was 40.3 µM. The GI50 (U251 CNS) was 4.72 µM, the TGI (U251 CNS) was 22.6 µM and the GI50 (RXF 393 renal) was 4.02 µM. It also gave a TGI (RXF 393 renal) of 29.4 µM, a GI50 (SK-MEL-2 melanoma) of 7.55 µM and a TGI (SK-MEL-2 melanoma) of 38.2 µM. For the same compound, the GI50 (A498 renal) was 2330 nM, the TGI (A498 renal) was 14.4 µM and the GI50 (OVCAR-4 ovarian) was 4.98 µM. The TGI (OVCAR-4 ovarian) was 46.7 µM, the GI50 (T-47D breast) was 3.85 µM and the TGI (T-47D breast) was greater than 100 µM. It also gave a GI50 (MALME-3M melanoma) of 5.07 µM, a TGI (MALME-3M melanoma) greater than 100 µM and a GI50 (A549 NSCLC) of 3.44 µM. It also gave a TGI (A549 NSCLC) greater than 100 µM, a GI50 (HOP-62 NSCLC) of 13.5 µM and a TGI (HOP-62 NSCLC) of 29.3 µM. For the same compound, the GI50 (NCI-H460 lung) was 3.5 µM, the TGI (NCI-H460 lung) was greater than 100 µM and the GI50 (NCI-H23 lung) was 7.14 µM. The TGI (NCI-H23 lung) was 70.9 µM, the GI50 (IGROV1 ovarian) was 3.09 µM and the TGI (IGROV1 ovarian) was greater than 100 µM. It also gave a GI50 (786-0 renal) of 5.65 µM, a TGI (786-0 renal) of 26.8 µM and a GI50 (SF-268 CNS) of 5.58 µM. For the same compound, the TGI (SF-268 CNS) was 37.4 µM, the GI50 (SN12C renal) was 4.78 µM and the TGI (SN12C renal) was greater than 100 µM. The GI50 (LOX IMVI melanoma) was 4.86 µM, the TGI (LOX IMVI melanoma) was greater than 100 µM and the GI50 (NCI-H226 lung) was 5.14 µM. It also gave a TGI (NCI-H226 lung) of 97.3 µM, a GI50 (HCC-2998 colon) greater than 100 µM and a TGI (HCC-2998 colon) greater than 100 µM. For the same compound, the GI50 (UACC-62 melanoma) was 3.95 µM and the TGI (UACC-62 melanoma) was greater than 100 µM.
